Measurements: patent US20260347335A1, “PESTICIDALLY ACTIVE CYCLIC AMINE COMPOUNDS” (SYNGENTA CROP PROTECTION AG, priority 2022, published 2026)

Tested on: Tetranychus urticae (Two-Spotted Spider Mite)
Assay: Example B1: Tetranychus urticae (Two-Spotted Spider Mite): Feeding/Contact Activity
Format: in vivo
Conditions: foliar, 192 h, application rate of 200 ppm, 8 days after infestation, bean leaf discs on agar, mites of mixed ages, read-out: mortality on mixed population (mobile stages)
Experimental: Example B1: Tetranychus urticae (Two-Spotted Spider Mite): Feeding/Contact Activity
Bean leaf discs on agar in 24-well microtiter plates were sprayed with aqueous test solutions prepared from 10,000 ppm DMSO stock solutions. After drying the leaf discs were infested with a mite population of mixed ages. The samples were assessed for mortality on mixed population (mobile stages) 8 days after infestation.

Row | SMILES | mortality at 200 ppm
1 | CC(=O)NC1(C2CCN(C(=O)c3cc(C#N)c(OCc4cc(Cl)ccc4F)nc3C(F)F)CC2)CC1 [Compound P1.18, N-[1-[1-[6-[(5-chloro-2-fluoro-phenyl)methoxy]-5-cyano-2-(difluoromethyl)pyridine-3-carbonyl]-4-piperidyl]cyclopropyl]acetamide] | ≥ 80%
2 | CC(C)(NS(C)(=O)=O)C1CCN(C(=O)c2cc(C#N)c(OCc3ccc4c(c3)OC(F)(F)O4)nc2C(F)F)CC1 [Compound P1.1, N-[1-[1-[5-cyano-6-[(2,2-difluoro-1,3-benzodioxol-5-yl)methoxy]-2-(difluoromethyl)pyridine-3-carbonyl]-4-piperidyl]-1-methyl-ethyl]methanesulfonamide] | ≥ 80%
3 | CC(=O)NC1(C2CCN(C(=O)c3cc(C#N)c(OCc4ccc5c(c4)OC(F)(F)O5)nc3C(F)F)CC2)CC1 [Compound P1.6, N-[1-[1-[5-cyano-6-[(2,2-difluoro-1,3-benzodioxol-5-yl)methoxy]-2-(difluoromethyl)pyridine-3-carbonyl]-4-piperidyl]cyclopropyl]acetamide] | ≥ 80%
